Test system: 945468-187-T-J2-PDC spheroids viability
Assay: Anticancer human tumor 945468-187-T-J2-PDC patient-derived rectal carcinoma cell line growth inhibition [PI3K]
Settings: spheroids with HUVEC and MSC; for IC50: curve of first compound; for viability, T/C: stronger effect = lower value
Method in brief: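 Multi-cell spheroids combine tumor cells with HUVEC and human MSCs, treated with targeted agents alone or with inavolisib, alpelisib, duvelisib or copanlisib. Concentrations fall in half-log steps from at or near clinical Cmax, or from 10 microM where Cmax is unknown; viability read-out.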

[1] = second compound 0.0316 µM, first compound 0.0316 µM
[2] = second compound 0.0316 µM, first compound 0.1 µM
[3] = second compound 0.0316 µM, first compound 0.316 µM
[4] = second compound 0.0316 µM, first compound 1 µM
[5] = second compound 0.0316 µM, first compound 3.16 µM
[6] = second compound 0.0316 µM, first compound 10 µM
[7] = second compound 0.1 µM, first compound 0.0316 µM
[8] = second compound 0.1 µM, first compound 0.1 µM
[9] = second compound 0.1 µM, first compound 0.316 µM
[10] = second compound 0.1 µM, first compound 1 µM
[11] = second compound 0.1 µM, first compound 3.16 µM
[12] = second compound 0.1 µM, first compound 10 µM
[13] = second compound 0.316 µM, first compound 0.0316 µM
[14] = second compound 0.316 µM, first compound 0.1 µM
[15] = second compound 0.316 µM, first compound 0.316 µM
[16] = second compound 0.316 µM, first compound 1 µM
[17] = second compound 0.316 µM, first compound 3.16 µM
[18] = second compound 0.316 µM, first compound 10 µM
[19] = second compound 1 µM, first compound 0.0316 µM
[20] = second compound 1 µM, first compound 0.1 µM
[21] = second compound 1 µM, first compound 0.316 µM
[22] = second compound 1 µM, first compound 1 µM
[23] = second compound 1 µM, first compound 3.16 µM
[24] = second compound 1 µM, first compound 10 µM
[25] = second compound 3.16 µM, first compound 0.0316 µM
[26] = second compound 3.16 µM, first compound 0.1 µM
[27] = second compound 3.16 µM, first compound 0.316 µM
[28] = second compound 3.16 µM, first compound 1 µM
[29] = second compound 3.16 µM, first compound 3.16 µM
[30] = second compound 3.16 µM, first compound 10 µM
[31] = second compound 10 µM, first compound 0.0316 µM
[32] = second compound 10 µM, first compound 0.1 µM
[33] = second compound 10 µM, first compound 0.316 µM
[34] = second compound 10 µM, first compound 1 µM
[35] = second compound 10 µM, first compound 3.16 µM
[36] = second compound 10 µM, first compound 10 µM
[37] = second compound 0.0316 µM, first compound 0.00316 µM
[38] = second compound 0.0316 µM, first compound 0.01 µM
[39] = second compound 0.1 µM, first compound 0.00316 µM
[40] = second compound 0.1 µM, first compound 0.01 µM
[41] = second compound 0.316 µM, first compound 0.00316 µM
[42] = second compound 0.316 µM, first compound 0.01 µM
[43] = second compound 1 µM, first compound 0.00316 µM
[44] = second compound 1 µM, first compound 0.01 µM
[45] = second compound 3.16 µM, first compound 0.00316 µM
[46] = second compound 3.16 µM, first compound 0.01 µM
[47] = second compound 10 µM, first compound 0.00316 µM
[48] = second compound 10 µM, first compound 0.01 µM
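Note: spheroids exposed to compounds for seven days before reading.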

In the case of `CC(C)NCC(C(=O)N1CCN(c2ncnc3c2C(C)CC3O)CC1)c1ccc(Cl)cc1` (stereo not drawn) + CC(Nc1ncnc2nc[nH]c12)c1cc2cccc(Cl)c2c(=O)n1-c1ccccc1, the IC50 (second compound 0.0316 µM) is reported as greater than 10 µM, the IC50 (second compound 0.1 µM) is reported as greater than 10 µM and the IC50 (second compound 0.316 µM) is reported as greater than 10 µM. For the same compound, the IC50 (second compound 1 µM) was greater than 10 µM, the IC50 (second compound 3.16 µM) was greater than 10 µM and the IC50 (second compound 10 µM) was greater than 10 µM. It also gave a viability, T/C [1] of 88.1%, a viability, T/C [2] of 82% and a viability, T/C [3] of 111%. The viability, T/C [4] was 74.2%, the viability, T/C [5] was 116% and the viability, T/C [6] was 77.2%. For the same compound, the viability, T/C [7] was 97.1%, the viability, T/C [8] was 93.1% and the viability, T/C [9] was 78%. For the same compound, the viability, T/C [10] was 84%, the viability, T/C [11] was 89.7% and the viability, T/C [12] was 77.7%. It also gave a viability, T/C [13] of 86.4%, a viability, T/C [14] of 76.6% and a viability, T/C [15] of 107%. For the same compound, the viability, T/C [16] was 97.5%, the viability, T/C [17] was 100% and the viability, T/C [18] was 76.9%. For the same compound, the viability, T/C [19] was 69.1%, the viability, T/C [20] was 97.6% and the viability, T/C [21] was 86.4%. The viability, T/C [22] was 106%, the viability, T/C [23] was 92.6% and the viability, T/C [24] was 67.9%. It also gave a viability, T/C [25] of 80.8%, a viability, T/C [26] of 75.3% and a viability, T/C [27] of 77%. For the same compound, the viability, T/C [28] was 116%, the viability, T/C [29] was 84.7% and the viability, T/C [30] was 76.9%. The viability, T/C [31] was 93.7%, the viability, T/C [32] was 96.1% and the viability, T/C [33] was 86.2%. The viability, T/C [34] was 103%, the viability, T/C [35] was 90.4% and the viability, T/C [36] was 81%.

`CCN1CCN(Cc2ccc(Nc3ncc(F)c(-c4cc(F)c5nc(C)n(C(C)C)c5c4)n3)nc2)CC1` + CC(Nc1ncnc2nc[nH]c12)c1cc2cccc(Cl)c2c(=O)n1-c1ccccc1 was tested, and the IC50 (second compound 0.0316 µM) was greater than 1 µM, the IC50 (second compound 0.1 µM) was greater than 1 µM and the IC50 (second compound 0.316 µM) was greater than 1 µM. It also gave an IC50 (second compound 1 µM) greater than 1 µM, an IC50 (second compound 3.16 µM) greater than 1 µM and an IC50 (second compound 10 µM) greater than 1 µM. For the same compound, the viability, T/C [37] was 91.3%, the viability, T/C [38] was 103% and the viability, T/C [1] was 98.8%. It also gave a viability, T/C [2] of 92.9%, a viability, T/C [3] of 100% and a viability, T/C [4] of 79.7%. For the same compound, the viability, T/C [39] was 93.5%, the viability, T/C [40] was 122% and the viability, T/C [7] was 118%. The viability, T/C [8] was 89.5%, the viability, T/C [9] was 84.2% and the viability, T/C [10] was 71.6%. The viability, T/C [41] was 83.9%, the viability, T/C [42] was 76.9% and the viability, T/C [13] was 86%. The viability, T/C [14] was 84.1%, the viability, T/C [15] was 95.8% and the viability, T/C [16] was 67%. For the same compound, the viability, T/C [43] was 120%, the viability, T/C [44] was 98% and the viability, T/C [19] was 85.4%. For the same compound, the viability, T/C [20] was 87.8%, the viability, T/C [21] was 88.7% and the viability, T/C [22] was 74.2%. The viability, T/C [45] was 90.8%, the viability, T/C [46] was 98.8% and the viability, T/C [25] was 94.2%. It also gave a viability, T/C [26] of 87.2%, a viability, T/C [27] of 77.8% and a viability, T/C [28] of 59.5%. For the same compound, the viability, T/C [47] was 81.5%, the viability, T/C [48] was 76.4% and the viability, T/C [31] was 104%. The viability, T/C [32] was 98.8%, the viability, T/C [33] was 95% and the viability, T/C [34] was 53.6%.

Compound `C[C@@H](NC(=O)c1ncnc(N)c1Cl)c1ncc(C(=O)Nc2cc(C(F)(F)F)c(Cl)cn2)s1` + CC(Nc1ncnc2nc[nH]c12)c1cc2cccc(Cl)c2c(=O)n1-c1ccccc1 has an IC50 (second compound 0.0316 µM) greater than 10 µM, an IC50 (second compound 0.1 µM) greater than 10 µM and an IC50 (second compound 0.316 µM) greater than 10 µM. The IC50 (second compound 1 µM) was greater than 10 µM, the IC50 (second compound 3.16 µM) was greater than 10 µM and the IC50 (second compound 10 µM) was greater than 10 µM. The viability, T/C [1] was 83.6%, the viability, T/C [2] was 82.8% and the viability, T/C [3] was 113%. It also gave a viability, T/C [4] of 106%, a viability, T/C [5] of 109% and a viability, T/C [6] of 86.2%. The viability, T/C [7] was 119%, the viability, T/C [8] was 108% and the viability, T/C [9] was 85.5%. For the same compound, the viability, T/C [10] was 68.7%, the viability, T/C [11] was 121% and the viability, T/C [12] was 104%. It also gave a viability, T/C [13] of 119%, a viability, T/C [14] of 90.9% and a viability, T/C [15] of 99.3%. For the same compound, the viability, T/C [16] was 92.2%, the viability, T/C [17] was 93.3% and the viability, T/C [18] was 80.7%. For the same compound, the viability, T/C [19] was 92.7%, the viability, T/C [20] was 108% and the viability, T/C [21] was 81.3%. It also gave a viability, T/C [22] of 95%, a viability, T/C [23] of 83.1% and a viability, T/C [24] of 90.1%. The viability, T/C [25] was 103%, the viability, T/C [26] was 110% and the viability, T/C [27] was 77.7%. For the same compound, the viability, T/C [28] was 124%, the viability, T/C [29] was 110% and the viability, T/C [30] was 104%. The viability, T/C [31] was 83%, the viability, T/C [32] was 123% and the viability, T/C [33] was 110%. It also gave a viability, T/C [34] of 84.4%, a viability, T/C [35] of 119% and a viability, T/C [36] of 108%.

With `Cn1ncnc1[C@H]1c2n[nH]c(=O)c3cc(F)cc(c23)N[C@@H]1c1ccc(F)cc1` + CC(Nc1ncnc2nc[nH]c12)c1cc2cccc(Cl)c2c(=O)n1-c1ccccc1 the IC50 (second compound 0.0316 µM) was greater than 0.1 µM, the IC50 (second compound 0.1 µM) was greater than 0.1 µM and the IC50 (second compound 0.316 µM) was greater than 0.1 µM. The IC50 (second compound 1 µM) was greater than 0.1 µM, the IC50 (second compound 3.16 µM) was greater than 0.1 µM and the IC50 (second compound 10 µM) was greater than 0.1 µM. The viability, T/C (second compound 0.0316 µM, first compound 0.000316 µM) was 100%, the viability, T/C (second compound 0.0316 µM, first compound 0.001 µM) was 106% and the viability, T/C [37] was 85.3%. It also gave a viability, T/C [38] of 93.1%, a viability, T/C [1] of 87.3% and a viability, T/C [2] of 89.8%. For the same compound, the viability, T/C (second compound 0.1 µM, first compound 0.000316 µM) was 89%, the viability, T/C (second compound 0.1 µM, first compound 0.001 µM) was 90.3% and the viability, T/C [39] was 88%. The viability, T/C [40] was 88%, the viability, T/C [7] was 103% and the viability, T/C [8] was 109%. For the same compound, the viability, T/C (second compound 0.316 µM, first compound 0.000316 µM) was 115%, the viability, T/C (second compound 0.316 µM, first compound 0.001 µM) was 102% and the viability, T/C [41] was 130%. For the same compound, the viability, T/C [42] was 97.5%, the viability, T/C [13] was 121% and the viability, T/C [14] was 96.8%. It also gave a viability, T/C (second compound 1 µM, first compound 0.000316 µM) of 88.8%, a viability, T/C (second compound 1 µM, first compound 0.001 µM) of 100% and a viability, T/C [43] of 84.7%. For the same compound, the viability, T/C [44] was 108%, the viability, T/C [19] was 103% and the viability, T/C [20] was 110%. For the same compound, the viability, T/C (second compound 3.16 µM, first compound 0.000316 µM) was 120%, the viability, T/C (second compound 3.16 µM, first compound 0.001 µM) was 108% and the viability, T/C [45] was 116%. The viability, T/C [46] was 128%, the viability, T/C [25] was 99.4% and the viability, T/C [26] was 111%. For the same compound, the viability, T/C (second compound 10 µM, first compound 0.000316 µM) was 117%, the viability, T/C (second compound 10 µM, first compound 0.001 µM) was 103% and the viability, T/C [47] was 112%. The viability, T/C [48] was 105%, the viability, T/C [31] was 102% and the viability, T/C [32] was 109%.
